Experimental data taken from patent US20230348369A1 (Cytokinetics, Inc., priority 2020, published 2023).
Read-outs that look alike come from different tables or passages of the source.

Biological target: human NAMPT (Homo sapiens, UniProt P43490)
Assay: Human recombinant enzyme assay (NMN fluorescence biochemical assay, activation of NAMPT)
Method: Compounds described herein were assayed for their ability to stimulate the synthesis of nicotinamide mononucleotide (NMN) by the enzyme NAMPT. The human recombinant enzyme assay measures the activation of the enzyme activity by compounds using recombinant enzyme and substrates in a buffered cell-free system. The assay conditions closely mimic cellular environments. Dose responses were measured using an assay to detect the formation of nicotinamide mono-nucleotide. All experiments were performed in the 384-well format. […] Enzyme reactions were initiated with the addition of 10 μL of a solution containing the substrates. The final assay conditions were as follows: 6 nM human NAMPT, 2.5 mM ATP, 20 μM PRPP and 150 μM nicotinamide in 50 mM HEPES, pH 7.2, 1 mM DTT, 1 mM CHAPS 50 mM NaCl, 100 mM MgCl2. Following an incubation of 60 min at ambient temperature, 10 μL of 20% acetophenone in DMSO was added, followed by 10 μL of 2 M KOH and 40 μL of formic acid. The plates were read for fluorescence (Excitation/Emission=355 nm/460 nm) using an EnVision plate reader after 40 mins of incubation at ambient temperature.

[1] = Table A, human recombinant NAMPT, NMN formation, 60 min, read-out: EC50 Human
[2] = Table A, human recombinant NAMPT, NMN formation, 60 min

human NAMPT, sequence (P43490 whole entry): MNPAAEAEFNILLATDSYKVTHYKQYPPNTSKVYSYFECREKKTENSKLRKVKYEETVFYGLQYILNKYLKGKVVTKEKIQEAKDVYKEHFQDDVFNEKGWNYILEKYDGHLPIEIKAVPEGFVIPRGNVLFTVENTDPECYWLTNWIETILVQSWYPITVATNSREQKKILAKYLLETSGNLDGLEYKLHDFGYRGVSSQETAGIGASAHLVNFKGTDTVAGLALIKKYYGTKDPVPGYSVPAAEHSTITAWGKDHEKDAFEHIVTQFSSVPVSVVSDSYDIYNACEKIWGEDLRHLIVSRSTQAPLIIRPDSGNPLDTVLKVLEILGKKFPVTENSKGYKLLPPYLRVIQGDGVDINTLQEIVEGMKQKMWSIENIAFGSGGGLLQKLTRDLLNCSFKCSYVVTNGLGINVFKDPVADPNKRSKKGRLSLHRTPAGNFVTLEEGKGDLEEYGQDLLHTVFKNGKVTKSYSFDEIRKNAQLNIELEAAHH

Structure (SMILES) | EC50 [1] [µM] | EC50 [µM] | AC1.4 Human [2] [µM]
CC(C)(C)OC(=O)NC1CC2(CC(NC(=O)NCc3ccc(Cl)cc3)C2)C1 (racemic) [Compound 8] | 5.1 | – | –
CC(C)(O)CN1CCN(C(=O)[C@H]2C[C@]3(C[C@H](NC(=O)NCc4ccc(Cl)cc4)C3)C2)CC1 (single isomer, unassigned) [Compound 182] | – | 20.5 | –
COC(=O)[C@H]1C[C@@]2(C[C@H](NC(=O)NCc3ccc(Cl)cc3)C2)C1 (single isomer, unassigned) [Compound 201, methyl 6-(3-(4-chlorobenzyl)ureido)spiro[3.3]heptane-2-carboxylate] | – | 22.2 | 6.7
COc1ccc(CNC(=O)NC2CC3(C2)CC(C(=O)NC2CCCc4ccc(F)cc42)C3)cc1 (stereo in doubt) [Compound 97, (S)-N-(7-fluoro-1,2,3,4-tetrahydronaphthalen-1-yl)-6-(3-(4-methoxybenzyl)ureido)spiro[3.3]heptane-2-carboxamide] | 2.7 | – | 1.3
COc1ccc(CNC(=O)NC2CC3(C2)CC(C(=O)NC2CCCc4cc(F)ccc42)C3)cc1 (stereo in doubt) [Compound 98, (S)-N-(6-fluoro-1,2,3,4-tetrahydronaphthalen-1-yl)-6-(3-(4-methoxybenzyl)ureido)spiro[3.3]heptane-2-carboxamide] | 7 | – | 3.0
COc1ccc(CNC(=O)NC2CC3(C2)CC(C(=O)NC2CCCc4ccc(F)cc42)C3)cc1 (stereo in doubt) [Compound 99, (R)-N-(7-fluoro-1,2,3,4-tetrahydronaphthalen-1-yl)-6-(3-(4-methoxybenzyl)ureido)spiro[3.3]heptane-2-carboxamide] | 3.9 | – | 5.1
COc1ccc(CNC(=O)NC2CC3(C2)CC(C(=O)NC2CCCc4ccccc42)C3)cc1 (stereo in doubt) [Compound 100, (R)-6-(3-(4-methoxybenzyl)ureido)-N-(1,2,3,4-tetrahydronaphthalen-1-yl)spiro[3.3]heptane-2-carboxamide] | 10.3 | – | 8.5
O=C(NCCCCC1CCN(C(=O)c2ccccc2)CC1)NCc1ccncc1 [Compound 1, 1-(4-(1-benzoylpiperidin-4-yl)butyl)-3-(pyridin-4-ylmethyl)urea] | 0.8 | – | 0.1
CC(C)(C)OC(=O)NC1CC2(CC(NC(=O)NCc3ccc(C(N)=O)cc3)C2)C1 (stereo not shown) [Compound 2, tert-butyl (6-(3-(4-carbamoylbenzyl)ureido)spiro[3.3]heptan-2-yl)carbamate] | 25.9 | – | –
CC1(C)CCC(NC(=O)NCc2ccc(C(N)=O)cc2)CC1 [Compound 3, 4-((3-(4,4-dimethylcyclohexyl)ureido)methyl)benzamide] | 41.4 | – | 17.5
NC(=O)c1ccc(CNC(=O)NC2CC(c3ccccc3)C2)cc1 (stereo not shown) [Compound 4, 4-((3-(3-phenylcyclobutyl)ureido)methyl)benzamide] | – | – | 9.9
CC(C)(C)OC(=O)N1CCC(NC(=O)NCc2ccc(C(N)=O)cc2)CC1 [Compound 5, tert-butyl 4-(3-(4-carbamoylbenzyl)ureido)piperidine-1-carboxylate] | 48.6 | – | –
CC(C)(C)OC(=O)NC1CC2(CC(NC(=O)NCc3ccncc3)C2)C1 (stereo not shown) [Compound 6, tert-butyl (6-(3-(pyridin-4-ylmethyl)ureido)spiro[3.3]heptan-2-yl)carbamate] | 26.8 | – | 4.5
CC(C)(C)OC(=O)NC1CC2(CC(NC(=O)NCc3ccc(CO)cc3)C2)C1 (stereo not shown) [Compound 9, tert-butyl (6-(3-(4-(hydroxymethyl)benzyl)ureido)spiro[3.3]heptan-2-yl)carbamate] | 47 | – | 3.4
CC(C)(C)OC(=O)NC1CC2(CC(NC(=O)NCc3cn[nH]c3)C2)C1 (stereo not shown) [Compound 10, tert-butyl (6-(3-((1H-pyrazol-4-yl)methyl)ureido)spiro[3.3]heptan-2-yl)carbamate] | 50.7 | – | 5.8
